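Tested at 5 concentrations; 48 h exposure; 96-well plates; endpoints linearly interpolated, else capped at highest concentration. GI50 is the concentration that inhibits growth by half. Definition used: TGI = concentration required for complete inhibition of growth.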
Tests used:
Assay in all cases: NCI tumour cell line growth inhibition, 48 h
786-0 renal = system: 786-0 renal
A498 renal = system: A498 renal
A549 NSCLC = system: A549 NSCLC
ACHN renal = system: ACHN renal
BT-549 breast = system: BT-549 breast
CAKI-1 renal = system: CAKI-1 renal
CCRF-CEM leukemia = system: CCRF-CEM leukemia
COLO 205 colon = system: COLO 205 colon
DU-145 prostate = system: DU-145 prostate
EKVX NSCLC = system: EKVX NSCLC
HCC-2998 colon = system: HCC-2998 colon
HCT-116 colon = system: HCT-116 colon
HCT-15 colon = system: HCT-15 colon
HL-60(TB) leukemia = system: HL-60(TB) leukemia
HOP-62 NSCLC = system: HOP-62 NSCLC
HOP-92 NSCLC = system: HOP-92 NSCLC
HS 578T breast = system: HS 578T breast
HT29 colon = system: HT29 colon
IGROV1 ovarian = system: IGROV1 ovarian
K-562 leukemia = system: K-562 leukemia
KM12 colon = system: KM12 colon
LOX IMVI melanoma = system: LOX IMVI melanoma
M14 melanoma = system: M14 melanoma
MALME-3M melanoma = system: MALME-3M melanoma
MCF7 breast = system: MCF7 breast
MDA-MB-231 breast = system: MDA-MB-231 breast
MDA-MB-435 = system: MDA-MB-435
MDA-MB-468 breast = system: MDA-MB-468 breast
MOLT-4 leukemia = system: MOLT-4 leukemia
NCI-H226 lung = system: NCI-H226 lung
NCI-H23 lung = system: NCI-H23 lung
NCI-H460 lung = system: NCI-H460 lung
NCI-H522 lung = system: NCI-H522 lung
NCI/ADR-RES ovarian = system: NCI/ADR-RES ovarian
OVCAR-3 ovarian = system: OVCAR-3 ovarian
OVCAR-4 ovarian = system: OVCAR-4 ovarian
OVCAR-5 ovarian = system: OVCAR-5 ovarian
OVCAR-8 ovarian = system: OVCAR-8 ovarian
PC-3 prostate = system: PC-3 prostate
RPMI-8226 leukemia = system: RPMI-8226 leukemia
RXF 393 renal = system: RXF 393 renal
SF-268 CNS = system: SF-268 CNS
SF-295 CNS = system: SF-295 CNS
SF-539 CNS = system: SF-539 CNS
SK-MEL-2 melanoma = system: SK-MEL-2 melanoma
SK-MEL-28 melanoma = system: SK-MEL-28 melanoma
SK-MEL-5 melanoma = system: SK-MEL-5 melanoma
SK-OV-3 ovarian = system: SK-OV-3 ovarian
SN12C renal = system: SN12C renal
SNB-19 CNS = system: SNB-19 CNS
SNB-75 CNS = system: SNB-75 CNS
SR leukemia = system: SR leukemia
SW-620 colon = system: SW-620 colon
T-47D breast = system: T-47D breast
TK-10 renal = system: TK-10 renal
U251 CNS = system: U251 CNS
UACC-257 melanoma = system: UACC-257 melanoma
UACC-62 melanoma = system: UACC-62 melanoma
UO-31 renal = system: UO-31 renal

O=C(CNc1nc(-c2ccccc2)cs1)Nc1ccc(Cl)cc1[N+](=O)[O-]
GI50 (786-0 renal): 3.75 µM | TGI (786-0 renal): 14.2 µM | GI50 (A498 renal): 7.9 µM | TGI (A498 renal): 20.4 µM | GI50 (A549 NSCLC): 3.93 µM | TGI (A549 NSCLC): 14.5 µM | GI50 (ACHN renal): 2.77 µM | TGI (ACHN renal): 10.5 µM | GI50 (BT-549 breast): 2.84 µM | TGI (BT-549 breast): 5.89 µM | GI50 (CAKI-1 renal): 1.85 µM | TGI (CAKI-1 renal): 9.85 µM | GI50 (CCRF-CEM leukemia): 3.29 µM | TGI (CCRF-CEM leukemia): > 100 µM | GI50 (COLO 205 colon): 2.61 µM | TGI (COLO 205 colon): 5.91 µM | GI50 (DU-145 prostate): 4.78 µM | TGI (DU-145 prostate): 18.7 µM | GI50 (EKVX NSCLC): 1.82 µM | TGI (EKVX NSCLC): 9.71 µM | GI50 (HCC-2998 colon): 2.71 µM | TGI (HCC-2998 colon): 10.2 µM | GI50 (HCT-116 colon): 2.95 µM | TGI (HCT-116 colon): 10.2 µM | GI50 (HCT-15 colon): 1.98 µM | TGI (HCT-15 colon): 4.53 µM | GI50 (HL-60(TB) leukemia): 2.03 µM | TGI (HL-60(TB) leukemia): 6.56 µM | GI50 (HOP-62 NSCLC): 4.23 µM | TGI (HOP-62 NSCLC): 17.3 µM | GI50 (HOP-92 NSCLC): 1.99 µM | TGI (HOP-92 NSCLC): 8.19 µM | GI50 (HS 578T breast): 2.39 µM | TGI (HS 578T breast): 9.58 µM | GI50 (HT29 colon): 3.79 µM | TGI (HT29 colon): 14.4 µM | GI50 (IGROV1 ovarian): 2.9 µM | TGI (IGROV1 ovarian): 12.1 µM | GI50 (K-562 leukemia): 2.49 µM | TGI (K-562 leukemia): > 100 µM | GI50 (KM12 colon): 3.36 µM | TGI (KM12 colon): 13 µM | GI50 (LOX IMVI melanoma): 1.32 µM | TGI (LOX IMVI melanoma): 2.88 µM | GI50 (M14 melanoma): 3.4 µM | TGI (M14 melanoma): 12.7 µM | GI50 (MALME-3M melanoma): 2.21 µM | TGI (MALME-3M melanoma): 5.51 µM | GI50 (MCF7 breast): 2.84 µM | TGI (MCF7 breast): 10.3 µM | GI50 (MDA-MB-231 breast): 1.63 µM | TGI (MDA-MB-231 breast): 3.54 µM | GI50 (MDA-MB-435): 3.25 µM | TGI (MDA-MB-435): 9.42 µM | GI50 (MDA-MB-468 breast): 2.02 µM | TGI (MDA-MB-468 breast): 5.69 µM | GI50 (MOLT-4 leukemia): 2.49 µM | TGI (MOLT-4 leukemia): 13.9 µM | GI50 (NCI-H226 lung): 2.64 µM | TGI (NCI-H226 lung): 13 µM | GI50 (NCI-H23 lung): 3.08 µM | TGI (NCI-H23 lung): 12.6 µM | GI50 (NCI-H460 lung): 4.18 µM | TGI (NCI-H460 lung): 17.5 µM | GI50 (NCI-H522 lung): 1.8 µM | TGI (NCI-H522 lung): 3.95 µM | GI50 (NCI/ADR-RES ovarian): 2.31 µM | TGI (NCI/ADR-RES ovarian): 6.53 µM | GI50 (OVCAR-3 ovarian): 2.36 µM | TGI (OVCAR-3 ovarian): 5.72 µM | GI50 (OVCAR-4 ovarian): 3.26 µM | TGI (OVCAR-4 ovarian): 13 µM | GI50 (OVCAR-5 ovarian): 2.49 µM | TGI (OVCAR-5 ovarian): 8.24 µM | GI50 (OVCAR-8 ovarian): 3.25 µM | TGI (OVCAR-8 ovarian): 13.1 µM | GI50 (PC-3 prostate): 2.78 µM | TGI (PC-3 prostate): 16.2 µM | GI50 (RPMI-8226 leukemia): 2.67 µM | TGI (RPMI-8226 leukemia): > 100 µM | GI50 (RXF 393 renal): 1.99 µM | TGI (RXF 393 renal): 6.5 µM | GI50 (SF-268 CNS): 2.1 µM | TGI (SF-268 CNS): 7.08 µM | GI50 (SF-295 CNS): 2.71 µM | TGI (SF-295 CNS): 11.1 µM | GI50 (SF-539 CNS): 1.84 µM | TGI (SF-539 CNS): 4.05 µM | GI50 (SK-MEL-2 melanoma): 3.04 µM | TGI (SK-MEL-2 melanoma): 9.74 µM | GI50 (SK-MEL-28 melanoma): 2.9 µM | TGI (SK-MEL-28 melanoma): 8.79 µM | GI50 (SK-MEL-5 melanoma): 1.93 µM | TGI (SK-MEL-5 melanoma): 4.26 µM | GI50 (SK-OV-3 ovarian): 4.65 µM | TGI (SK-OV-3 ovarian): 19 µM | GI50 (SN12C renal): 2.81 µM | TGI (SN12C renal): 10.7 µM | GI50 (SNB-19 CNS): 3.78 µM | TGI (SNB-19 CNS): 15 µM | GI50 (SNB-75 CNS): 1.24 µM | TGI (SNB-75 CNS): 7.02 µM | GI50 (SR leukemia): 3.75 µM | TGI (SR leukemia): > 100 µM | GI50 (SW-620 colon): 4.1 µM | TGI (SW-620 colon): 14.4 µM | GI50 (T-47D breast): 2.46 µM | TGI (T-47D breast): 8.61 µM | GI50 (TK-10 renal): 6.12 µM | TGI (TK-10 renal): 17.9 µM | GI50 (U251 CNS): 2.06 µM | TGI (U251 CNS): 6.56 µM | GI50 (UACC-257 melanoma): 5.13 µM | TGI (UACC-257 melanoma): 17 µM | GI50 (UACC-62 melanoma): 1.33 µM | TGI (UACC-62 melanoma): 3.25 µM | GI50 (UO-31 renal): 1.62 µM | TGI (UO-31 renal): 6.97 µM

From PubChem BioAssay (NCI)
